Results reported in patent US20080045580A1, “Novel Isoxazole Compounds Having Ppar Agonist Activity” (DR REDDY'S LABORATORIES LIMITED, priority 2004, published 2008).

Assays:
human PPARγ1 = target: T1, human PPARγ1 (Homo sapiens, UniProt P37231); assay: in vitro PPARγ transactivation (GAL4-LBD luciferase reporter in HEK-293 cells); assay type: cell-based
T1 construct: expressed in transfected cells; host or cells: HEK-293
T1 sequence (P37231 238-503 limits assumed): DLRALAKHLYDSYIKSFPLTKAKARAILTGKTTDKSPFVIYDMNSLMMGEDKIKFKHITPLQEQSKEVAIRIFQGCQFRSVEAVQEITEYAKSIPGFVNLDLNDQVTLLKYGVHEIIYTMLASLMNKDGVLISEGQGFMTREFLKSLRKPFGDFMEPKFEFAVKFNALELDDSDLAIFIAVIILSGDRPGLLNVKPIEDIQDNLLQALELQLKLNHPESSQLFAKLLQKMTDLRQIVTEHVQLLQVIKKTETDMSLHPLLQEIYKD
Text: (§1) The following procedure was used for in vitro determination of PPARα, γ and δ transactivation.
(§2) The ligand binding domain of human PPARγ1, PPARα or PPARδ was fused to the C-terminal end of DNA binding domain of yeast transcription factor GAL4 in eukaryotic expression vector. Using SuperFect (Qiagen), HEK-293 cells were transfected with this plasmid and a reporter plasmid harboring the luciferase gene driven under the control of 5 tandem GLA4 response elements. In some experiments, pAdVantage vector (Promega) was used to enhance luciferase expression. Compounds were added approximately 48 hours after transfection at various concentrations and incubated overnight. The cells were lysed and the luciferase activity was measured using the LucLite kit in Top Count (Packard). Luciferase activity was expressed as fold activation relative to untreated cells in the same experiment.

human PPARα = target: T2, human PPARα (Homo sapiens, UniProt Q07869); assay: in vitro PPARα transactivation (GAL4-LBD luciferase reporter in HEK-293 cells); assay type: cell-based
T2 construct: expressed in transfected cells; host or cells: HEK-293
T2 sequence (Q07869 239-466 limits assumed): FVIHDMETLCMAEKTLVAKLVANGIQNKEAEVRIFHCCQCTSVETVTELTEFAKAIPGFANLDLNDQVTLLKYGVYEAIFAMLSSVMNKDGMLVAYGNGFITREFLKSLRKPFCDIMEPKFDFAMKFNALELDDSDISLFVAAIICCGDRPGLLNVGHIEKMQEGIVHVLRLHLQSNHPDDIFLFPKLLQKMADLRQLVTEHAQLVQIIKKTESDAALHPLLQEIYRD
Text: Generally, suitable PPAR agonists are believed to be useful for attenuating and/or treatment of diabetic dyslipidemia, metabolic syndrome, diabetes, cardiovascular disease, and obesity. The following procedure was used for in vitro determination of PPARα, γ and δ transactivation.
as §2

human PPARδ = target: T3, human PPARδ (Homo sapiens, UniProt Q03181); assay: in vitro PPARδ transactivation (GAL4-LBD luciferase reporter in HEK-293 cells); assay type: cell-based
T3 construct: expressed in transfected cells; host or cells: HEK-293
T3 sequence (Q03181 211-439 limits assumed): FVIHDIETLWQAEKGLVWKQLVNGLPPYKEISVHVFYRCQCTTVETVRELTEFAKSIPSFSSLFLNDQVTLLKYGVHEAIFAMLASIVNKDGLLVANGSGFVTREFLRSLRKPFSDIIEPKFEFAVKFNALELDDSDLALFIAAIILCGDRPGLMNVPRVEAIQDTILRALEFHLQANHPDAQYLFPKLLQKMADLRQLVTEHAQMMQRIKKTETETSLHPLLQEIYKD
Text: as §1, §2

Male Swiss albino mice = assay: plasma triglyceride lowering in Swiss albino mice; assay type: in vivo; conditions: plasma triglycerides
Protocol: Male Swiss albino mice (SAM) were obtained from National Institute Nutrition (NIN, Hyderabad, India) and housed in Dr. Reddy's Laboratories Ltd (DRL) animal house. All these animals were maintained under 12 hour light and dark cycle at 25±1° C. Animals were given standard laboratory chow (NIN, Hyderabad, India) and water, ad libitum. Mice of 20-25 grams body weight range were used. See Olivier, et al., Atherosclerosis, 1988, 70:107-114, incorporated herein by reference in its entirety. The test compounds were administered orally to mice at the doses shown in the following in table for 6 days. […] After centrifugation, plasma was separated for plasma triglyceride and total cholesterol measurement. See Wieland, Methods of Enzymatic Analysis, Bergermeyer, ed., 1963, 211-214; Trinder, Ann. Clin. Biochenz., 1969, 6:24-27, incorporated herein by reference in their entireties. Measurement of cholesterol and plasma triglyceride was done using a […] autoanalyser (Merck). The percent reductions in plasma triglycerides (TG)/total cholesterol were calculated according to the following formula: [formula] OC=Zero day control group value OT=Zero day treated group value TC=Test day control group value TT=Test day treated group value.

[1] = test system: hypercholesterolemic Male Sprague Dawley rats; assay: lipid lowering in hypercholesterolemic Sprague Dawley rats; assay type: in vivo; conditions: hypercholesterolemic SD rats, 3 mg/kg orally for 3 days; for % Reduction TG: plasma triglycerides; for % Reduction TC: total cholesterol; for % Reduction LDL: LDL cholesterol calculated from TC, HDL, TG; for HDL % increase: values represent % increase
Protocol: Male Sprague Dawley rats (NIN stock) were bred in DRL animal house. Animals were maintained under 12 hour light and dark cycle at 25±1° C. Rats of 180-200 gram body weight range were used for the experiment. Animals were made hypercholesterolemic by feeding 2% cholesterol and 1% sodium cholate mixed with standard laboratory chow (NIN) for 6 days. Throughout the experimental period the animals were maintained on the same diet. Control rats were treated with vehicle alone (0.25% CMC; 10 ml/kg). Blood samples were collected in fed state 1 hour after drug administration on 0 and 3 days of treatment from the retro-orbital sinus through heparinized capillary tubes containing EDTA. After centrifugation, plasma sample was separated for total cholesterol, HDL and plasma triglyceride measurement. Measurement of total cholesterol, HDL and plasma triglyceride was done using a Vitalab Selectra autoanalyser (Merck). HDL was measured using a commercial kit. LDL and VLDL cholesterol were calculated from the data obtained for total cholesterol, HDL and plasma triglyceride.
The percent reductions in plasma triglycerides (TG)/total cholesterol (TC) were calculated as described in Example 55. The levels of LDL and VLDL cholesterol were calculated according to the following formulas: LDL cholesterol in mg/dl=[Total cholesterol−HDL cholesterol−Triglyceride/5] VLDL cholesterol in mg/dl=[Total cholesterol−HDL cholesterol−LDL cholesterol]

| SMILES | PPARγ luciferase fold activation relative to untreated cells (human PPARγ1; 1 μM) | PPARγ luciferase fold activation relative to untreated cells (human PPARγ1; 10 μM) | PPARγ luciferase fold activation relative to untreated cells (human PPARγ1; 50 μM) | PPARα luciferase fold activation relative to untreated cells (human PPARα; 1 μM) | PPARα luciferase fold activation relative to untreated cells (human PPARα; 10 μM) | PPARα luciferase fold activation relative to untreated cells (human PPARα; 50 μM) | PPARδ luciferase fold activation relative to untreated cells (human PPARδ; 1 μM) | PPARδ luciferase fold activation relative to untreated cells (human PPARδ; 10 μM) | PPARδ luciferase fold activation relative to untreated cells (human PPARδ; 50 μM) | melting point [°C] | % reduction in TG (Male Swiss albino mice; 3 mg/kg orally for 6 days) [%] | % Reduction TG [1] [%] | % Reduction TC [1] [%] | % Reduction LDL [1] [%] | HDL % increase [1] [%] | % reduction in TG (Male Swiss albino mice; 1 mg/kg orally for 6 days) [%] |
| --- | --- | --- | --- | --- | --- | --- | --- | --- | --- | --- | --- | --- | --- | --- | --- | --- |
| CCC(C)(Oc1ccc(OCc2cc(-c3ccc(OS(C)(=O)=O)cc3)no2)cc1)C(=O)O (stereo not drawn) [Example 5] | 0.9 | 1.2 | 6.4 | 1.7 | 3.8 | 6.0 | 9.0 | 10 | 33 | – | 75 | – | – | – | – | – |
| CCC(C)(Oc1ccc(OCCCc2cc(-c3ccccc3)no2)cc1)C(=O)O (stereo not drawn) [Example 10] | 0.9 | 3.5 | 9.5 | 4.0 | 5.7 | 5.1 | 7.5 | 23 | 47 | 115 to 117 | 75 | – | – | – | – | – |
| CCC(C)(Oc1ccc(OCc2cc(-c3ccc(C(F)(F)F)cc3)no2)cc1)C(=O)O (stereo not drawn) [Example 11] | 2.4 | 2.7 | 3.6 | 4.1 | 4.0 | 4.0 | – | – | – | 136 to 138 | 65 | 55 | 71 | 76 | 139 | – |

Further lines, with some results ahead:

| PPARγ luciferase fold activation relative to untreated cells (human PPARγ1; 1 μM) | PPARγ luciferase fold activation relative to untreated cells (human PPARγ1; 10 μM) | PPARγ luciferase fold activation relative to untreated cells (human PPARγ1; 50 μM) | PPARα luciferase fold activation relative to untreated cells (human PPARα; 1 μM) | PPARα luciferase fold activation relative to untreated cells (human PPARα; 10 μM) | PPARα luciferase fold activation relative to untreated cells (human PPARα; 50 μM) | PPARδ luciferase fold activation relative to untreated cells (human PPARδ; 1 μM) | PPARδ luciferase fold activation relative to untreated cells (human PPARδ; 10 μM) | PPARδ luciferase fold activation relative to untreated cells (human PPARδ; 50 μM) | melting point [°C] | SMILES | % reduction in TG (Male Swiss albino mice; 3 mg/kg orally for 6 days) [%] | % Reduction TG [1] [%] | % Reduction TC [1] [%] | % Reduction LDL [1] [%] | HDL % increase [1] [%] | % reduction in TG (Male Swiss albino mice; 1 mg/kg orally for 6 days) [%] |
| --- | --- | --- | --- | --- | --- | --- | --- | --- | --- | --- | --- | --- | --- | --- | --- | --- |
| 2.0 | 2.8 | 12.4 | 1.5 | 4.8 | 5.9 | – | – | – | – | CC(C)(Oc1ccc(CCCc2cc(-c3ccccc3)no2)cc1)C(=O)O [Example 28, 2-methyl-2-{4-[3-(3-phenylisoxazol-5-yl)propyl]phenoxy}propanoic acid] | 48 | 62 | 70 | – | 132 | – |
| 4.3 | 9.8 | 13.5 | 4.1 | 4.9 | 5.4 | 0.9 | 26.4 | 23.2 | – | O=C(O)C1(Cc2ccc(OCc3cc(-c4ccc(C(F)(F)F)cc4)no3)cc2)CCCO1 (stereo not drawn) [Example 36] | – | 63 | 52 | 62 | 128 | 26 |
